Reference: US6602687B1, “DNA encoding human ciliary neurotrophic factor and method for producing the protein encoded thereby” (Regeneron Pharmaceuticals, Inc., priority 1989, dated 2003)

How the values were obtained:
[1] = test system: E8 chick ciliary ganglion neurons; experiment: Survival of dissociated E8 chick ciliary ganglion neurons; format: cell-based; conditions: cultured two days with a range of peptide concentrations
Description: Ciliary neurotrophic factor activity may be evaluated using any CNTF-sensitive in vivo or in vitro system known in the art. For example, and not by way of limitation, in vitro systems have been developed which measure CNTF activity by quantitating 24-hour survival of embryonic (E8) chick ciliary ganglion (CG) neurons in monolayer cultures.
For example, ciliary ganglia may be collected from E8 chick embryos, dissociated (yielding approximately 20,000 cells per ganglion) and then diluted in HEBM medium containing 20 percent horse serum as described in Varon et al. (1979, Brain Res. 173:29-45). […] Culture plates may then be maintained at 37° C. in 5% CO2 for 24 hours, after which the cultures may be fixed by the addition of 200 μl 2 per cent glutaraldehyde in HEBM medium, and the number of surviving neurons may be determined visually by direct count under phase contrast microscopy. […]
Biological activity of recombinant CNTF was assayed on explants of chick embryo dorsal root ganglia (DRG) and dissociated cultures of ciliary ganglion (CG) neurons as described in Lindsay and Rohrer (1985, Devel. Biol 112:30-48). […] In explant cultures CNTF activity was determined by assessing the extent of fiber outgrowth in treated cultures compared to controls. Fiber outgrowth was scored on a scale of 0 to 5+, by comparing cultures to photographs of a dose-response of explanted DRG and NGF. […]

[2] = test system: chick embryonic spinal motorneurons; experiment: Survival of chick embryonic spinal motorneurons in culture; format: cell-based; parameters: key to Survival: −: not significantly different from control (survival: 8.3 ± 3.8%, mean ± SD, n = 18); ±: about 15-20% (statistically significant from each blank control, p < 0.01); + +: about 35-55%; + ++: about 55-75%; conditions: for Survival / Motoneuron survival (%): after 3 days in culture; for Survival: one concentration per molecule, Table VI, CNTF rat, rec.; for survival effect on motoneurons: supramaximal concentrations, NT-3 produced by transfected Cos-cells; for highest survival effect of the concentration-response curve: CNTF = recombinant rat; for Motoneuron survival (%): mean ± SEM (n = 4), IGF-I 1 μg/ml, Basic FGF 30 ng/ml, CNTF 1.5 ng/ml
Method: Motorneuron columns were dissected under a stereomicroscope from the lumbar part of the spinal cord of chick embryos on the 6th day of embryonic development and stored in cold calcium and magnesium-free Hanks balanced salt solution supplemented with glucose (4 g/l) (HBSS). The tissues were washed with HBSS and treated with 0.03% trypsin in HBSS at 37° C. for 20 min with gentle shaking, rinsed with cold HBSS and triturated mildly in 3 steps of 8-passage agitation in 1 ml of cold 0.1% soybean trypsin inhibitor (Sigma) in HBSS through a fire-polished siliconized Pasteur pipette. Each supernatant cell suspension was filtered through 50 μm-Nylon mesh, pooled and layered onto 4 ml of cold 6.8% metrizamide (Fluka) in HBSS-25 mM HEPES (pH7.4) in a 12 ml-siliconized conical glass tube. The tube was centrifuged at 400 g for 15 min at 4° C. and the intermediate layer (0.5 ml) was collected into another siliconized tube containing 6.5 ml of cold culture medium (a mixture of glucose (4 g/l)-supplemented Leibovitz's L-15 medium (Gibco), 0.15 M sodium bicarbonate, heat-inactivated and filtered horse serum and penicillin G (10^5 units/ml) at the ratio of 75:15:10:0.1, freshly prepared and buffered with 5% CO2.) After centrifugation at 100×g for 7 min at 4° C., the supernatant was removed and the cells were gently resuspended in culture medium and plated in Greiner 4-well culture dishes (well diameter, 10 mm; C. A. Greiner und Sohne GmbH, Nurtingen, West Germany) at 1000-2000 cells/well. The dishes had been precoated with poly-DL-ornithine (Sigma, 0.5 mg in 0.15 M sodium borate buffer (pH 8.3) overnight at 4° C., rinsed twice with phosphate-buffered saline (PBS) and subsequently coated with laminin (Gibco; 10 μg/ml in the serum-depleted culture medium) and placed in a 5% CO2-incubator until cell plating (5-6 hrs). Cells were incubated at 37° C. in a humidified 5% CO2- and 95% air-incubator. Samples were added one hr after plating and the culture medium changed after 24 hrs and 72 hrs. The initial cell numbers were counted 3 hrs after plating.
In some experiments motor neurons were retrogradely labeled with a fluorescent dye in vivo before cell preparation (U. Dohrman et al., 1986, Dev. Biol. 118:209-221) to identify the motor neuron cell population. A small hole was made in the shell of eggs which had been incubated for 5 days. Small pieces of rhodamine isothiocyanate crystals (Sigma) were inserted at two or three places into each hind limb thigh and the egg hole was sealed with a cellophane tape. The eggs were incubated for another 24 hrs. Some of the operated embryos were then processed for frozen sections after formaldehyde fixation. […] The other embryos were used for cell preparation using the method described above (18.1.1). After 5 hrs in culture cells were rinsed with warm HBSS, fixed with 4% formaldehyde in PBS at room temperature for 20 min, rinsed with PBS and then mounted in glycerol-PBS (1:1) with glass coverslips. Of the total cells approximately 83% were labeled and identified as motorneurons (FIG. 42.) Most of these labeled motorneurons were large cells and the rest were intermediate-size cells. No small cells were labeled. On the other hand, in experiments in which cells were not labeled with a fluorescent dye about 70% of the total cells were large phase-bright cells with round cell somas, about 20% were intermediate-size neurons (most of them may be motorneurons) and about 10% were small immature neurons (they have neuron-like processes with growth cones but have phase-dark semi-flat cell somas). Non-neuronal cells were either not present or accounted for less than 2%. Taken together, one may conclude that at least 83% of the cells are motorneurons while the remainder consists of non-labeled motorneurons, a small number of unidentified intermediate-size neurons and about 10% immature small neurons. […]

hippocampal neurons = experiment: Glutamate-induced toxicity in hippocampal cultures (MTT assay); format: cell-based, rat; conditions: glutamate 1 mM for 15 minutes, MTT after 20 h
Method: FIG. 38. Protective effect of CNTF on glutamate-induced toxicity in hippocampal cultures. […] Glutamate at various concentations (100-1000 uM) was added for 15 minutes, after which the cells were cultured in the absence of glutamate or CNTF for 20 h. Survival of cells at the end of the culture period was assessed by MTT assay based on the conversion of MTT (3-(4,5-dimethylthiazol-2-yl)-2,5-diphenyl tetrazolium bromide) to a purple product by vital cells. MTT dye was added to a final concentration of 0.5 mg/ml. Dyes taken up by live cells were solubilized by the addition of 0.08N HCI in isopropranol 5 hours later, and O.D. (570-650 nm) was measured.
The effect of CNTF on GABAergic neurons was dependent on the density at which the cells were plated. […] This may be due to an elevated level of neurotrophic factors in high density cultures. […] We have assessed the neurotoxic effects of various concentrations of glutamate (10-1000 μM) by means of a calorimetric MTT assay, as shown in FIG. 38. At a concentration of 1 mM, glutamate reduced cell survival to approximately 10%. In the presence of CNTF ([…]), cell survival following exposure to glutamate was enhanced.

| Molecule | Survival [2] | survival effect on motoneurons [2] | concentration at which the highest survival effect was obtained ([2]; 3 days in culture) | highest survival effect of the concentration-response curve ([2]; 3 days in culture) | further results |
| --- | --- | --- | --- | --- | --- |
| MVLLEQKIPENEADGMPATVGDGGLFEK (MVLLEQKIPENEADGMPATVGDGGLFEK) [28 amino acid synthetic peptide fragment] |  |  |  |  | neurotrophic activity (neuronal survival) [1]: A dose-response relationship was observed |
| PDGF | − | no discernable effect |  |  |  |
| Insulin: Insulin (bovine) | ± (about 15-20% (statistically significant from each blank control, p < 0.01)) |  | 25000 ng/mL | 16% |  |
| Basic FGF: basic fibroblast growth factor (human, rec.) | + + (about 35-55%) |  | 30 ng/mL | 51% | Motoneuron survival (%) [2]: 51.9 ± 3.6%; EC50 ([2]; motorneuron survival, 3 days in culture): 0.26 ng/mL |
| TGFa: TGFa (human, rec.) | − | no discernable effect |  |  |  |
| N[C@@H](CCC(=O)O)C(=O)O [glutamate, reference compound] |  |  |  |  | cell survival after glutamate (hippocampal neurons): approximately 10% |
| IGF-I: insulin-like growth factor I (human, rec.) | ± (about 15-20% (statistically significant from each blank control, p < 0.01)) |  | 100 ng/mL | 15% | Motoneuron survival (%) [2]: 14.5 ± 0.5 % |
| IL-1β: IL-1β (human, rec.) | − | no discernable effect |  |  |  |
| IGF-II: insulin-like growth factor II (human, rec.) | ± (about 15-20% (statistically significant from each blank control, p < 0.01)) |  | 300 ng/mL | 15% |  |
| TGFβ1: TGFβ1 (porcine, rec.) | − | no discernable effect |  |  |  |
| Transferrin: Transferrin (human) | − |  |  |  |  |
| Acidic FGF: acidic FGF (human, rec.) | ± (about 15-20% (statistically significant from each blank control, p < 0.01)) |  | 300 ng/mL | 18% | concentration at which the highest survival effect was obtained, in the presence of 1 μg/ml heparin ([2]; 3 days in culture): 100 ng/mL; highest survival effect of the concentration-response curve, in the presence of 1 μg/ml heparin ([2]; 3 days in culture, heparin only first 24 hr): 35% |
